Measurements published in paper PMC5762309 (Oncotarget, 2017).
Read-outs that look alike come from different tables or passages of the source.

Assays:
[1] = tested on: FLT3(ITD); assay: KINOMEScan; assay type: binding; parameters: dose or concentration left out as unconfirmed
[2] = target: T1, MAP4K3 (Homo sapiens, UniProt Q8IVH8); assay: KINOMEScan; assay type: binding; parameters: dose or concentration left out as unconfirmed
T1 construct: purchased DiscoverX KINOMEscan

[3] = target: T2, SIK (Homo sapiens, UniProt P57059); assay: KINOMEScan; assay type: binding; parameters: dose or concentration left out as unconfirmed
T2 construct: purchased DiscoverX KINOMEscan

[4] = target: T3, CSNK1G1 (Homo sapiens, UniProt Q9HCP0); assay: KINOMEScan; assay type: binding; parameters: dose or concentration left out as unconfirmed
T3 construct: purchased DiscoverX KINOMEscan

[5] = target: T4, PFTK1 (Homo sapiens, UniProt O94921); assay: KINOMEScan; assay type: binding; parameters: dose or concentration left out as unconfirmed
T4 construct: purchased DiscoverX KINOMEscan

[6] = target: T5, EGFR(L861Q) (Homo sapiens, UniProt P00533, L861Q); assay: KINOMEScan; assay type: binding; parameters: dose or concentration left out as unconfirmed
T5 construct: purchased DiscoverX KINOMEscan

[7] = target: KIT T670I/V559D (Homo sapiens, UniProt P10721, T670I/V559D); assay: KIT auto-phosphorylation in transformed BaF3 cells
[8] = target: T6, TYK2(JH1domain-catalytic) (Homo sapiens, UniProt P29597); assay: KINOMEScan; assay type: binding; parameters: dose or concentration left out as unconfirmed
T6 construct: TYK2(JH1domain-catalytic); purchased DiscoverX KINOMEscan

[9] = target: T7, EPHB2 (Homo sapiens, UniProt P29323); assay: KINOMEScan; assay type: binding; parameters: dose or concentration left out as unconfirmed
T7 construct: purchased DiscoverX KINOMEscan

[10] = target: KIT L576p (Homo sapiens, UniProt P10721, L576P); assay: KIT auto-phosphorylation in transformed BaF3 cells; conditions: 2h
[11] = target: T8, DCAMKL1 (Homo sapiens, UniProt O15075); assay: KINOMEScan; assay type: binding; parameters: dose or concentration left out as unconfirmed
T8 construct: purchased DiscoverX KINOMEscan

[12] = target: T9, CSNK1G2 (Homo sapiens, UniProt P78368); assay: KINOMEScan; assay type: binding; parameters: dose or concentration left out as unconfirmed
T9 construct: purchased DiscoverX KINOMEscan

[13] = target: T10, JNK3 (Homo sapiens, UniProt P53779); assay: KINOMEScan; assay type: binding; parameters: dose or concentration left out as unconfirmed
T10 construct: purchased DiscoverX KINOMEscan

[14] = target: T11, KIT wt (Homo sapiens, UniProt P10721); assay: ADP-Glo biochemical assay; parameters: wt KIT residues 544-935 with a His tag; His tag; made in house; host or cells: SF9 insect cells (baculovirus); conditions: purified kinase protein, 100 μM ATP
Target sequence in this assay (P10721 544-935): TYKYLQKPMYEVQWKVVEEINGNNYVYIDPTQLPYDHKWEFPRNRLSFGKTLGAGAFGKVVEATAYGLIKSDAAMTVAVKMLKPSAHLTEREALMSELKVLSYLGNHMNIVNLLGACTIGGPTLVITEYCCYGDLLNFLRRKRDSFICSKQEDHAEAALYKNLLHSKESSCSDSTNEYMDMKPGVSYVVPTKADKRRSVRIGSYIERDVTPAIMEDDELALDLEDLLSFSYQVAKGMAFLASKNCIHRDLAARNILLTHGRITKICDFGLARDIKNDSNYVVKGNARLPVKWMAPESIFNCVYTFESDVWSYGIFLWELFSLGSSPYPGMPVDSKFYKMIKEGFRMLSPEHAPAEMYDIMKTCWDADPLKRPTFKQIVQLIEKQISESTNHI

[15] = target: T12, CDK8 (Homo sapiens, UniProt P49336); assay: KINOMEScan; assay type: binding; parameters: dose or concentration left out as unconfirmed
T12 construct: purchased DiscoverX KINOMEscan

[16] = target: T13, EGFR (Homo sapiens, UniProt P00533); assay: KINOMEScan; assay type: binding; parameters: dose or concentration left out as unconfirmed
T13 construct: purchased DiscoverX KINOMEscan

[17] = target: T11, KIT wt; assay: KIT auto-phosphorylation in transformed BaF3 cells; assay type: cell-based; conditions: 2h
Target sequence in this assay (P10721 546-937 limits assumed): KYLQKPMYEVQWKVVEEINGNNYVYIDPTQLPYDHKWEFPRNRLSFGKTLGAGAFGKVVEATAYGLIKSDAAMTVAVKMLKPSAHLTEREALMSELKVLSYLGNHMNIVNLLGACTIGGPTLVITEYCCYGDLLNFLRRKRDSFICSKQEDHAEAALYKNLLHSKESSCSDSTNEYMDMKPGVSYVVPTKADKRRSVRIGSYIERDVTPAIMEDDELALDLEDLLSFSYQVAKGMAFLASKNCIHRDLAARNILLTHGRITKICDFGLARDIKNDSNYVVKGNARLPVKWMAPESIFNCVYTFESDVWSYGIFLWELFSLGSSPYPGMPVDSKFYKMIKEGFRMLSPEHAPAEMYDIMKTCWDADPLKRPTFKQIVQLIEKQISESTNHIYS

[18] = target: T14, PIP5K1C (Homo sapiens, UniProt O60331); assay: KINOMEScan; assay type: binding; parameters: dose or concentration left out as unconfirmed
T14 construct: purchased DiscoverX KINOMEscan

[19] = target: T15, MKK7 (Homo sapiens, UniProt O14733); assay: KINOMEScan; assay type: binding; parameters: dose or concentration left out as unconfirmed
T15 construct: purchased DiscoverX KINOMEscan

[20] = target: T16, EGFR(L747-S752del, P753S) (Homo sapiens, UniProt P00533, DEL747-752/P753S); assay: KINOMEScan; assay type: binding; parameters: dose or concentration left out as unconfirmed
T16 construct: purchased DiscoverX KINOMEscan

[21] = target: T17, CDK2 (Homo sapiens, UniProt P24941); assay: KINOMEScan; assay type: binding; parameters: dose or concentration left out as unconfirmed
T17 construct: purchased DiscoverX KINOMEscan

[22] = target: T18, MET(Y1235D) (Homo sapiens, UniProt P08581, Y1235D); assay: KINOMEScan; assay type: binding; parameters: dose or concentration left out as unconfirmed
T18 construct: purchased DiscoverX KINOMEscan

[23] = target: KIT V559D (Homo sapiens, UniProt P10721, V559D); assay: Kd determination by MST; assay type: binding; parameters: Kit V559D encoding residues 545-976 with His tag; His tag; made in house; host or cells: SF9 insect cells (baculovirus); conditions: purified protein
[24] = target: KIT T670I (Homo sapiens, UniProt P10721, T670I); assay: KIT auto-phosphorylation in transformed BaF3 cells; conditions: 2h
[25] = target: T19, ITK (Homo sapiens, UniProt Q08881); assay: KINOMEScan; assay type: binding; parameters: dose or concentration left out as unconfirmed
T19 construct: purchased DiscoverX KINOMEscan

[26] = target: T20, ULK3 (Homo sapiens, UniProt Q6PHR2); assay: KINOMEScan; assay type: binding; parameters: dose or concentration left out as unconfirmed
T20 construct: purchased DiscoverX KINOMEscan

[27] = target: KIT A829P (Homo sapiens, UniProt P10721, A829P); assay: KIT auto-phosphorylation in transformed BaF3 cells
[28] = target: T21, EPHA5 (Homo sapiens, UniProt P54756); assay: KINOMEScan; assay type: binding; parameters: dose or concentration left out as unconfirmed
T21 construct: purchased DiscoverX KINOMEscan

[29] = target: T22, MST1 (Homo sapiens, UniProt Q13043); assay: KINOMEScan; assay type: binding; parameters: dose or concentration left out as unconfirmed
T22 construct: purchased DiscoverX KINOMEscan

[30] = target: T23, JAK2(JH1domain-catalytic) (Homo sapiens, UniProt O60674); assay: KINOMEScan; assay type: binding; parameters: dose or concentration left out as unconfirmed
T23 construct: JAK2(JH1domain-catalytic); purchased DiscoverX KINOMEscan

[31] = EC50 pY703 auto-phosphorylation
[32] = EC50 pY719 auto-phosphorylation
[33] = EC50 pY823 auto-phosphorylation

Sequence of KIT T670I/V559D (P10721 26-976 V559D/T670I): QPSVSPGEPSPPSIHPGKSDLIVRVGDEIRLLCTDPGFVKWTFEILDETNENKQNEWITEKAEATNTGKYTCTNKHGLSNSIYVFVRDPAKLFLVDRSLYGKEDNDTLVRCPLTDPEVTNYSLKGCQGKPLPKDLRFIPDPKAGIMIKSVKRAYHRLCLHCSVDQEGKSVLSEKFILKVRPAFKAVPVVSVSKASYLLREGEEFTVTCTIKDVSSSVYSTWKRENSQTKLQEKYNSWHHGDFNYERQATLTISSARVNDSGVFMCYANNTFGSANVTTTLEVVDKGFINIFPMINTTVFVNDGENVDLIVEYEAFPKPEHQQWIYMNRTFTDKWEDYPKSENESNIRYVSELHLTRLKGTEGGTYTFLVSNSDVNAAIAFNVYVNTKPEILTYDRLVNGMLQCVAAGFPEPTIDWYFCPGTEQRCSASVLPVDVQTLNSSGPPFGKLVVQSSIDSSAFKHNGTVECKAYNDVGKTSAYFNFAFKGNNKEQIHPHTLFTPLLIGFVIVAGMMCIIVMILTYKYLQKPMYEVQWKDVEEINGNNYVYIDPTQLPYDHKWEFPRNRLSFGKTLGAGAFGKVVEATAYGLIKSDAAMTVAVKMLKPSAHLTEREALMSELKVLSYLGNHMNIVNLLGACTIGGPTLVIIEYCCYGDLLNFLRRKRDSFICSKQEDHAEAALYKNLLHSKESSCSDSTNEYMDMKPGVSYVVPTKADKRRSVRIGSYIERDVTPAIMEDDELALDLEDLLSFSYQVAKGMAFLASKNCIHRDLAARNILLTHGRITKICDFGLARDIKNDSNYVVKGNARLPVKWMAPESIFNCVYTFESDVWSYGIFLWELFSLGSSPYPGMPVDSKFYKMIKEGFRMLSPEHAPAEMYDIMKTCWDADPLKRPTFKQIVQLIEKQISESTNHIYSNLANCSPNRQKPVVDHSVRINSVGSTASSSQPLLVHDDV
Sequence of KIT L576p (P10721 26-976 L576P): as the sequence (P10721 26-976 V559D/T670I) above, with D534V, L551P, I645T counted along it
Sequence of KIT T670I (P10721 26-976 T670I): as the sequence (P10721 26-976 V559D/T670I) above, with D534V counted along it
Sequence of KIT A829P (P10721 26-976 A829P): as the sequence (P10721 26-976 V559D/T670I) above, with D534V, I645T, A804P counted along it
T10 sequence (P53779 whole entry): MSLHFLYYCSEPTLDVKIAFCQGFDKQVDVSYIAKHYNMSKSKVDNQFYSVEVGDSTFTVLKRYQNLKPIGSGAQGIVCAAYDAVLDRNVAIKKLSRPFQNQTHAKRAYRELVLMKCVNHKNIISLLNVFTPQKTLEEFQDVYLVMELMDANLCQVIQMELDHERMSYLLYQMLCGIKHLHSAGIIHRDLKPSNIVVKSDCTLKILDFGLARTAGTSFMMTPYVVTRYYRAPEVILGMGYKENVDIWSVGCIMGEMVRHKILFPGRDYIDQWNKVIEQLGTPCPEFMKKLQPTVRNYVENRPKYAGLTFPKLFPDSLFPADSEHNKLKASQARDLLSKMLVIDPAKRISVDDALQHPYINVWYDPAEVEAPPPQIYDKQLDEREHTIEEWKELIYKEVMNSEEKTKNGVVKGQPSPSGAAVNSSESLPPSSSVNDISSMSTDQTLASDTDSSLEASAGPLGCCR
Sequence of KIT V559D (P10721 545-976 V559D): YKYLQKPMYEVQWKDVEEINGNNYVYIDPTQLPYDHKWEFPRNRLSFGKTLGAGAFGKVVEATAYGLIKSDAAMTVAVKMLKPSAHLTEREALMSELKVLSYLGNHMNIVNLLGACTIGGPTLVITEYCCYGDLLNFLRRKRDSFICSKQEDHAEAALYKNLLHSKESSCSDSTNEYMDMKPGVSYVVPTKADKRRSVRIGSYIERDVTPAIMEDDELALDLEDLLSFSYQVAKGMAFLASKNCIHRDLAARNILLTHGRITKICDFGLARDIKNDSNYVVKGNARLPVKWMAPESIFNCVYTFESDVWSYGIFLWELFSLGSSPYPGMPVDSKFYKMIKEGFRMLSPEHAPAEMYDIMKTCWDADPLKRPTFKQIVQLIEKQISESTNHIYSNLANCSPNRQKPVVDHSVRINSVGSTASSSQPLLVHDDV
T8 sequence (O15075 whole entry): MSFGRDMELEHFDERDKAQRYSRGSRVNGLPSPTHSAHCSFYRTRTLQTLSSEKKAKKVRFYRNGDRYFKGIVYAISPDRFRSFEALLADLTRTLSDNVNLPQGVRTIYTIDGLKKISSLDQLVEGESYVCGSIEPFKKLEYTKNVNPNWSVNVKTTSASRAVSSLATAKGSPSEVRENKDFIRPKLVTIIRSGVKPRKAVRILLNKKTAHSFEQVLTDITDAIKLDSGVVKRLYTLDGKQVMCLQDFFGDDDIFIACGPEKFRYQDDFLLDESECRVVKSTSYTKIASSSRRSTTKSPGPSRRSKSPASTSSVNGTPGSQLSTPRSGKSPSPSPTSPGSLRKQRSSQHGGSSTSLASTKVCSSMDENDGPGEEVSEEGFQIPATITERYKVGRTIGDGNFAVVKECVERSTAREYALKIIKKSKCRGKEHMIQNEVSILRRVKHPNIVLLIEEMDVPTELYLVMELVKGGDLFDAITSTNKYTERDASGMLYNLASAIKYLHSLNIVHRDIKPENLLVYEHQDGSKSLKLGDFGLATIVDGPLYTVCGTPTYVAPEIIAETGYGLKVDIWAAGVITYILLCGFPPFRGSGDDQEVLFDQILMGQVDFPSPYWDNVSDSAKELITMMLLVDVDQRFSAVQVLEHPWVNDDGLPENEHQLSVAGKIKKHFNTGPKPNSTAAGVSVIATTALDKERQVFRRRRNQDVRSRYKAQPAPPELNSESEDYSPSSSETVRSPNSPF
T16 sequence (P00533 with tags, fused parts or gaps DEL747-752/P753S limits assumed): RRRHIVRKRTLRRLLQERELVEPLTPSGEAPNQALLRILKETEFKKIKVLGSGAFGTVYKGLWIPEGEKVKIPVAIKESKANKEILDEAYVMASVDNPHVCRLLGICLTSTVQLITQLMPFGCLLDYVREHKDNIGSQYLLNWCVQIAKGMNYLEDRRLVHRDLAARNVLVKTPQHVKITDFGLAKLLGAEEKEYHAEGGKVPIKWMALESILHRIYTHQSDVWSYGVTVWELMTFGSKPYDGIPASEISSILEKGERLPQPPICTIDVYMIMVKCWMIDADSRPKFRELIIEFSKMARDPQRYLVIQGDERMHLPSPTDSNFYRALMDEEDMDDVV
T6 sequence (P29597 872-1187 limits assumed): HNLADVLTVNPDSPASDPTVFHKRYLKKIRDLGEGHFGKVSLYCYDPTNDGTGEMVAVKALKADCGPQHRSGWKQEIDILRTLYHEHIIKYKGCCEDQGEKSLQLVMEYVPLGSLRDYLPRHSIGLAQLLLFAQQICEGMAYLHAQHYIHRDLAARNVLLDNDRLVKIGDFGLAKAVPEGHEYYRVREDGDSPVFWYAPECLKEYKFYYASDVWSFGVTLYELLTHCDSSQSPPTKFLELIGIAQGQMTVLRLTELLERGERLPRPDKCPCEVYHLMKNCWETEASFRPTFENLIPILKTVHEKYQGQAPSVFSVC
T23 sequence (O60674 849-1132 limits assumed): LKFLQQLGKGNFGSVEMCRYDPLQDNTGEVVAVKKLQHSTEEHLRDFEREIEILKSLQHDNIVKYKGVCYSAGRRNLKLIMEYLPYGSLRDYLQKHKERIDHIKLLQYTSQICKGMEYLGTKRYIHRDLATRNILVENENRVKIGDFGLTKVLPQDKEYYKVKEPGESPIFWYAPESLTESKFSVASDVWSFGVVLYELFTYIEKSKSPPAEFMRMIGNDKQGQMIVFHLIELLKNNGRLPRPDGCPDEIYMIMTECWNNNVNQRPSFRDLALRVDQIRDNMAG
T15 sequence (O14733 whole entry): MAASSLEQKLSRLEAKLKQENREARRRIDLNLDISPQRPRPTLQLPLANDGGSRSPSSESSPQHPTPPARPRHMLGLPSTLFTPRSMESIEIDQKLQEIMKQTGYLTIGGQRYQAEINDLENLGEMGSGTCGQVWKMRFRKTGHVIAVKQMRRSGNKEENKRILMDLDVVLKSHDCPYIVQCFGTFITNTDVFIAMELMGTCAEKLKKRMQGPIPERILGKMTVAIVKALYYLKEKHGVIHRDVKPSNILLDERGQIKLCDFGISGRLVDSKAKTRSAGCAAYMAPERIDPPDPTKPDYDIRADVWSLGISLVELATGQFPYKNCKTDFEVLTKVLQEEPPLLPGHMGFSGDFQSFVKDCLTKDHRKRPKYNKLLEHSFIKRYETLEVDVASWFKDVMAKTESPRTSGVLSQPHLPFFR

COc1cc(C(=O)NCC(=O)Nc2ccc3c(/C=C/c4ccccn4)n[nH]c3c2)cc(OC)c1OC [CHMFL-KIT-031]
KINOMEScan profiling value [1]: 44 | KINOMEScan profiling value [2]: 100 | KINOMEScan profiling value [3]: 100 | KINOMEScan profiling value [4]: 100 | KINOMEScan profiling value [5]: 100 | KINOMEScan profiling value [6]: 100 | EC50 [7]: > 10 µM | EC50 ([7]; read-out: EC50 pY719 auto-phosphorylation, KIT T670I/V559D transformed BaF3 cells, 2h): > 10 µM | EC50 ([7]; read-out: EC50 pY823 auto-phosphorylation, KIT T670I/V559D transformed BaF3 cells, 2h): > 10 µM | KINOMEScan profiling value [8]: 100 | KINOMEScan profiling value [9]: 87 | EC50 [10, 31]: > 10 µM | EC50 [10, 32]: 5.9 µM | EC50 [10, 33]: 1.9 µM | KINOMEScan profiling value [11]: 100 | KINOMEScan profiling value [12]: 100 | KINOMEScan profiling value [13]: 99 | IC50 [14]: 0.168 µM | KINOMEScan profiling value [15]: 100 | KINOMEScan profiling value [16]: 100 | EC50 ([17]; read-out: EC50 pY703 auto-phosphorylation): 1.9 µM | EC50 ([17]; read-out: EC50 pY719 auto-phosphorylation): 8.2 µM | EC50 ([17]; read-out: EC50 pY823 auto-phosphorylation): 6.9 µM | KINOMEScan profiling value [18]: 71 | KINOMEScan profiling value [19]: 100 | KINOMEScan profiling value [20]: 100 | KINOMEScan profiling value [21]: 100 | KINOMEScan profiling value [22]: 100 | Kd [23]: 0.266 µM | EC50 [24, 31]: > 10 µM | EC50 [24, 32]: > 10 µM | EC50 [24, 33]: 1.1 µM | KINOMEScan profiling value [25]: 96 | KINOMEScan profiling value [26]: 89 | EC50 [27]: > 10 µM | EC50 ([27]; read-out: EC50 pY719 auto-phosphorylation, KIT A829P transformed BaF3 cells, 2h): > 10 µM | EC50 ([27]; read-out: EC50 pY823 auto-phosphorylation, KIT A829P transformed BaF3 cells, 2h): > 10 µM | KINOMEScan profiling value [28]: 100 | KINOMEScan profiling value [29]: 89 | KINOMEScan profiling value [30]: 100
